Reference: patent publication US20260137698A1, “CYCLIN-DEPENDENT KINASE 7 INHIBITORS” (JOINT STOCK COMPANY «BIOCAD», priority 2022, published 2026)
Where two headings read alike, the source gives them in different places.

Assays:
[1] = system: NCl-H82 (small cell lung cancer); assay: Antiproliferative assay on NCl-H82 cells (AlamarBlue, 120 h); assay type: cell-based; details: mean value from several measurements
Method: The antiproliferative activity of CDK7 inhibitors according to the present invention was evaluated in a cell test using continuous cell cultures: MDA-MB-468 (triple negative breast cancer, ATCC® HTB-132™) and NCl-H82 (small cell lung cancer, ATCC® HTB-175™) using a viable AlamarBlue dye (Thermo Fisher Scientific Inc, order no. DAL1100). The cells were grown in DMEM (PanEco, order no. C330π) and RPMI-1640 (PanEco, order no. C330π), respectively. The basal growth medium was enriched with L-glutamine at a concentration of 2 mM (PanEco, order no. Φ032) and 10% fetal bovine serum (Gibco, order no. 16140-071). The night before measurement, MDA-MB-468 adherent cells were detached from plastic with a solution of trypsin-EDTA (PanEco, order no. Π039π), the solution was then inactivated by a DMEM complete medium, centrifuged at 1000 RPM (Eppendorf, 5804 R), a suspension of cells was prepared in a DMEM complete medium, introduced into 96-well culture plates (Corning Inc, order no. 3599) at 8×10^3 cells in 100 μl of medium per well. The next day, test compounds were dissolved in DMSO and diluted with a DMEM complete medium to a final concentration ranging from 50 μM to 10 pM. Diluted compounds in a volume of 50 μl were introduced into the plate wells with cells in triplicates (the final concentration of DMSO was no more than 1%) and incubated at 37° C. in an incubator with 5% CO2 for 96 hours. NCl-H82 suspension cell line was prepared on the day of the analysis. 10×10^3 cells in 100 μl of an RPMI-1640 complete medium were added to each well of a 96-well plate. The procedure for sample dilution is as described above. Cells with test compounds were incubated at 37° C. in an incubator with 5% CO2 for 120 hours. Following incubation, […] of AlamarBlue reagent (Thermo Fisher Scientific Inc., order no. DAL1100) was added to the wells, the contents of the plates were stirred in an orbital shaker (Biosan, Latvia), then further incubated for 5.5-6 hours at 37° C. in an incubator with 5% CO2. The number of viable cells was detected using the Infinite M200Pro microplate spectrophotometer (Tecan Group Ltd, Switzerland) by way of measuring a fluorescent signal at an excitation wavelength (λEx) of 540 nm and an emission wavelength (λEm) of 590 nm.
IC50 value was calculated using the Magellan software (Tecan Group Ltd, Switzerland) by approximating experimental points by four-parameter model with the optimization by Levenberg-Marquardt: […]

[2] = Passive membrane permeability through PAMPA artificial membrane, pH 7.4; assay type: in vitro ADME; details: pH 7.4, 10 μmol, 20 hours at room temperature, mean of multiple measurements, read-out: PAMPA passive permeability Pe
Method: Passive membrane permeability of the compounds described in the present invention was determined using the PAMPA (parallel artificial membrane permeability assay) model at pH 7.4.
We used a 96-well plate (Corning® BioCoat® Pre-coated PAMPA Plate System, order no. 353015), composed of acceptor and donor parts with cell membrane-modeling PVDF filter pre-impregnated with a lecithin-phospholipid bilayer. The substance (at a concentration of 10 μmol) in a 0.01 M phosphate buffer with pH 7.4 was introduced into a donor well of the plate, and pure buffer was introduced into an acceptor well; afterwards, the both parts were combined and incubated for 20 hours at room temperature so that the compound was redistributed between the two wells and the membrane. Verapamil (USP, USA, order no. 1711202) and propranolol (MCE LLC, USA, cat. no. HY-B0573/CS-2680) were used as control compounds with high and medium permeability. Samples were analyzed by reversed-phase HPLC with UV detection (Agilent 1260 chromatograph with UV detector) by determining their peak areas in the donor and acceptor wells.
Permeability (Pe, cm/s) and retention factor (R, %) in the lipid bilayer were calculated using the formula:
[formula] [formula] • Co is donor-well concentration of the substance at the initial moment of time t (μM); • CA (t) is acceptor-well concentration of the substance at time t (μM); • Vd is donor-well volume (0.3 ml); • Va is acceptor-well volume (0.15 ml).
[formula] • A is filter area (0.3 cm^2); • t is incubation time (72000 s);

CDK9/Cyclin K = CDK9/Cyclin K (Homo sapiens, UniProt P50750); assay: Inhibition of CDK9/Cyclin K kinase activity (ADP-Glo); assay type: biochemical
Procedure, shortened: (§1)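 Kinase preincubated with compound (11 points, 4-fold steps from 50 μM) for 10 minutes at 25° C. in kinase buffer A with DTT, then reacted 40-60 minutes at 25° C. with ATP and CDKtide, Histone H1 or PDKtide substrate. ADP formation read by ADP-Glo luminescence; IC50 from four-parameter fit.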

[3] = General cytotoxicity on primary differentiated HepaRG cells (72 h); assay type: cell-based; details: human, general toxicity, mean value from several measurements
Procedure, shortened: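 Differentiated HepaRG cells, maintained a week in basal hepatic medium with maintenance/metabolism supplement, were plated at 25×10^3 cells/well overnight. Compounds (200 μM to 0.2 nM) were added for 72 h before viability readout.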

[4] = system: MDA-MB-468 (triple negative breast cancer); assay: Antiproliferative assay on MDA-MB-468 cells (AlamarBlue, 96 h); assay type: cell-based; details: Homo sapiens, mean value from several measurements
CDK2/Cyclin A = CDK2/Cyclin A (Homo sapiens, UniProt P24941); assay: Inhibition of CDK2/Cyclin A kinase activity (ADP-Glo); assay type: biochemical
Procedure, shortened: as §1

CDK7/Cyclin H/MNAT1 = CDK7/Cyclin H/MNAT1 (Homo sapiens, UniProt P50613); assay: Inhibition of CDK7/Cyclin H/MNAT1 kinase activity (ADP-Glo); assay type: biochemical
Procedure, shortened: as §1

[5] = Microsomal stability in human liver microsomes (HLM); assay type: in vitro ADME; details: 1 μM test compound
Method: The procedure for investigating the metabolism of selected compounds was carried out in microsomal fractions of the liver (of rats, mice, humans) in the presence of a phase I metabolism cofactor (NADPH).
The rate of enzymatic decomposition of the compound in liver microsomes in in vitro analysis was determined by keeping a reaction mixture comprising 0.5 mg/ml of pooled human, rat or mouse liver microsomes, 1 μM test compound, 1.5 mM […] (Carbosynth, UK, cat. no. NN108711101) and 1.5 mM magnesium chloride in 0.1 M sodium phosphate buffer (pH 7.4) in a solid-state thermostat at 37° C. (XenoTech, USA, order no. H2610, cat. no. R1000, cat. no. M1000). Incubation was carried out in three replicates.
To determine the stability of compounds under sample preparation conditions, an aliquot in two replicates with the test compound and a microsomal fraction devoid of the NADPH cofactor, which was incubated for 40 minutes at 37° C.
Reactions were stopped at 0, 10, 20, 30 and 40 min time points by way of adding an ice mixture of acetonitrile:methanol (3:1) comprising an internal standard.
Samples were then centrifuged to remove the precipitated protein, supernatants were analyzed using HPLC-MS/MS to determine in vitro clearance (CLint) of the compounds. The Agilent 6410 mass spectrometer (Agilent, USA) combined with the Agilent 1260 Infinity II HPLC liquid chromatograph (Agilent, USA) and a cooling autosampler controlled by MassHunter software (Agilent, USA) was used as an HPLC-MS/MS system. Chromatographic analysis was performed on a C18 reversed-phase HPLC column (Agilent, Waters or equivalent) in a gradient elution mode in a system of mobile phases: 0.1% formic acid in water/0.1% formic acid in acetonitrile, flow rate: 0.5 ml/min, column T=35° C. Mass spectrometric detection was performed with electrospray ionization in multiple reaction monitoring mode. Precursor ions, fragment ions and collision energies for each substance were selected experimentally.
A graph of dependence of the logarithmic ratio between substance's peak area and internal standard's peak area vs time was built. The dependent coefficient of this line corresponded to the elimination rate constant k, on the basis of which the in vitro clearance CLint was calculated:
Based on resulting in vitro clearance CLint values, the microsomal stability of the selected compounds for humans, rats and mice was concluded.

[6] = mean value from several measurements, read-out: IC50 CDK9/Cyclin K
[7] = mean value from several measurements, read-out: IC50 CDK2/Cyclin A
[8] = mean value from several measurements, read-out: IC50 CDK7/Cyclin H/MNAT

Sequence of CDK7/Cyclin H/MNAT1 (P50613 whole entry): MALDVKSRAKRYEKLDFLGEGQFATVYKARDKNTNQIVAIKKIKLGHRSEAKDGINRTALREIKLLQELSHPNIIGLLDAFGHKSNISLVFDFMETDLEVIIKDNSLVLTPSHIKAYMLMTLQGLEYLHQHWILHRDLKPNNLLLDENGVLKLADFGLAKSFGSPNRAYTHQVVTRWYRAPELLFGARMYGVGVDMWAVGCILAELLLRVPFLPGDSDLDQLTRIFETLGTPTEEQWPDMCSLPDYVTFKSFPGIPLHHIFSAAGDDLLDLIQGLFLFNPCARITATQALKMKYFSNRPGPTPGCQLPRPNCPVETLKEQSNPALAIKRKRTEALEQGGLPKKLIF
Sequence of CDK7/Cyclin H/MNAT1 (P51946 whole entry partner): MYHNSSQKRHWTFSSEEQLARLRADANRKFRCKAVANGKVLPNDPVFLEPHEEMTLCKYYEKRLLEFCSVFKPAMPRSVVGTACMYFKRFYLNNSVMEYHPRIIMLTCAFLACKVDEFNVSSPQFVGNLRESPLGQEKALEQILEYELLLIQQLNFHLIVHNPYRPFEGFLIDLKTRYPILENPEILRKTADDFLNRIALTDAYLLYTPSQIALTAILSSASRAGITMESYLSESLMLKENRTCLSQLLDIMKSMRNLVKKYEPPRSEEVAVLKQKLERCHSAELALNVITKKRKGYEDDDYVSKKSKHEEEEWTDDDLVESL
Sequence of CDK7/Cyclin H/MNAT1 (P51948 whole entry partner): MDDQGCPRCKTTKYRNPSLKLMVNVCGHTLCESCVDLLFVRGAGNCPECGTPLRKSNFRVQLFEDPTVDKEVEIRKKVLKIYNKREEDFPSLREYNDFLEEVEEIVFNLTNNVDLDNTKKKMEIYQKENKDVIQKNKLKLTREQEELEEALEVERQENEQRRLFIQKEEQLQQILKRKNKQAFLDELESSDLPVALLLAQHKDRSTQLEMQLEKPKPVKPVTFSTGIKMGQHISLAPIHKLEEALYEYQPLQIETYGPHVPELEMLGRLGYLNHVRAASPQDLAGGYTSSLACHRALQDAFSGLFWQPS
Sequence of CDK9/Cyclin K (P50750 whole entry): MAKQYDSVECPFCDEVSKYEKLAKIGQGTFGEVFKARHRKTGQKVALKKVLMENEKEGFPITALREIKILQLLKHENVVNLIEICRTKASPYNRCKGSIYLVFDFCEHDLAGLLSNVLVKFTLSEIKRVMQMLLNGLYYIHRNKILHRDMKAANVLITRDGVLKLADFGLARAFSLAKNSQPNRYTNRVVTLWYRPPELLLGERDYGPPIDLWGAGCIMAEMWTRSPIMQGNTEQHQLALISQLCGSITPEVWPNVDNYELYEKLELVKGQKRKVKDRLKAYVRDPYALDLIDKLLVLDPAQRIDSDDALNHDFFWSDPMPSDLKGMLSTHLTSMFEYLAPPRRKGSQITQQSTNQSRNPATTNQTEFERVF
Sequence of CDK9/Cyclin K (O75909 whole entry partner): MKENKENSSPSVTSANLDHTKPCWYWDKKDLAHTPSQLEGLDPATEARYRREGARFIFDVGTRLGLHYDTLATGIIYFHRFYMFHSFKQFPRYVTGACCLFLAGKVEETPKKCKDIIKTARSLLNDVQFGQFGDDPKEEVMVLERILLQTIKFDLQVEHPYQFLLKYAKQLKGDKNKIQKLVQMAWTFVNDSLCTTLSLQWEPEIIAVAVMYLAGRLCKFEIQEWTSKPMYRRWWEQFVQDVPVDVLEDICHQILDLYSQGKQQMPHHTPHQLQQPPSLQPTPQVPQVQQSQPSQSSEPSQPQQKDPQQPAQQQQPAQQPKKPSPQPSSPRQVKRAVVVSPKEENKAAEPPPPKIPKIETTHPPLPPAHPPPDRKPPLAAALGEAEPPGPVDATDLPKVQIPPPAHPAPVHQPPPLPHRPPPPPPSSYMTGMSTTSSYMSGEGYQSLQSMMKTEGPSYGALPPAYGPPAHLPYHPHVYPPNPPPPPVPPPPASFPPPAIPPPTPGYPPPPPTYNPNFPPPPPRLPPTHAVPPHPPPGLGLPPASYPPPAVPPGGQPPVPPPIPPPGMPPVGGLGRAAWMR

SMILES | IC50 [1] | Papp at 20 h, 10 μmol [2] | IC50 (CDK9/Cyclin K; [6]) | IC50 [4] | IC50 (CDK2/Cyclin A; [7]) | IC50 (CDK7/Cyclin H/MNAT1; [8]) | In vitro clearance CLint (HLM) [5] | IC50 (CDK9/Cyclin K; mean of multiple measurement series, ATP 50 μM, read-out: CDK9/Cyclin K IC50) | IC50 (CDK2/Cyclin A; mean of multiple measurement series, ATP 50 μM, read-out: CDK2/Cyclin A IC50) | IC50 (CDK7/Cyclin H/MNAT1; mean of multiple measurement series, ATP 10 μM, read-out: CDK7/Cyclin H/MNAT1 IC50) | CC50 at 72 h [3]
CN(C)C(=O)c1cc(-c2nc(N[C@H]3CCCNC3)ncc2C(F)(F)F)cn1C [CDK7_1017, N,N,1-trimethyl-4-(2-{[(3S)-piperidin-3-yl]amino}-5-(trifluoromethyl)py-rimidin-4-yl)-1H-pyrrole-2-carboxamide] | > 1 µM | 10 to 50 nm/s | 0.05 to 0.2 µM | 0.1 to 1 µM | > 0.2 µM | 0.005 to 0.05 µM |  |  |  |  | > 2 µM
Cc1nc(-c2cc(-c3nc(N[C@H]4CCCNC4)ncc3C(F)(F)F)c[nH]2)no1 [CDK7_1060, 4-[5-(5-methyl-1,2,4-oxadiazol-3-yl)-1H-pyrrol-3-yl]-N-[(3S)-piperidin-3-yl]-5-(trifluoromethyl)py-rimidin-2-amine] | 0.01 to 0.1 µM | 50 to 100 nm/s | 0.005 to 0.05 µM | 0.01 to 0.1 µM | > 0.2 µM | < 0.005 µM |  |  |  |  | 0.1 to 0.5 µM
FC(F)(F)c1cnc(N[C@H]2CCCNC2)nc1-c1c[nH]c(-c2nnnn2C2CC2)c1 [CDK7_1102] | 0.01 to 0.1 µM | 10 to 50 nm/s | 0.005 to 0.05 µM | 0.01 to 0.1 µM | > 0.2 µM | 0.005 to 0.05 µM |  |  |  |  | 0.5 to 2 µM
CC1(C)CC[C@H](Nc2ncc(C(F)(F)F)c(-c3c[nH]c4c3CCCN(CC3CCCC3)C4=O)n2)CN1 [CDK7_1155, 7-(cyclopentylmeth-yl)-3-(2-{[(3S)-6,6-dimethylpiperidin-3-yl]amino}-5-(trifluoromethyl)py-rimidin-4-yl)-1H,4H,5H,6H,7H, 8H-pyrrolo[2,3-c]azepin-8-one] | 0.01 to 0.1 µM | 50 to 100 nm/s | > 0.2 µM | 0.01 to 0.1 µM | > 0.2 µM | 0.005 to 0.05 µM |  |  |  |  | > 2 µM

Now from value to compound, other results behind:

IC50 [1] | Papp at 20 h, 10 μmol [2] | IC50 (CDK9/Cyclin K; [6]) | IC50 [4] | IC50 (CDK2/Cyclin A; [7]) | IC50 (CDK7/Cyclin H/MNAT1; [8]) | In vitro clearance CLint (HLM) [5] | IC50 (CDK9/Cyclin K; mean of multiple measurement series, ATP 50 μM, read-out: CDK9/Cyclin K IC50) | IC50 (CDK2/Cyclin A; mean of multiple measurement series, ATP 50 μM, read-out: CDK2/Cyclin A IC50) | IC50 (CDK7/Cyclin H/MNAT1; mean of multiple measurement series, ATP 10 μM, read-out: CDK7/Cyclin H/MNAT1 IC50) | SMILES | CC50 at 72 h [3]
< 0.01 µM | 10 to 50 nm/s | 0.005 to 0.05 µM | < 0.01 µM | > 0.2 µM | < 0.005 µM |  |  |  |  | O=c1c2[nH]cc(-c3nc(N[C@H]4CCCNC4)ncc3C(F)(F)F)c2ccn1-c1nccs1 [CDK7_1058, 3-(2-{[(3S)-piperidin-3-yl]amino}-5-(trifluoromethyl)py-rimidin-4-yl)-6-(1,3-thiazol-2-yl)-1H,6H,7H-pyrrolo[2,3-c]pyridin-7-one] | 0.5 to 2 µM
0.01 to 0.1 µM | < 10 nm/s | 0.005 to 0.05 µM | < 0.01 µM | > 0.2 µM | < 0.005 µM |  |  |  |  | O=c1c2[nH]cc(-c3nc(N[C@H]4CCCNC4)ncc3C(F)(F)F)c2ccn1C1CC1 [CDK7_1105, 6-cyclopropyl-3-(2-{[(3S)-piperidin-3-yl]amino}-5-(trifluoromethyl)py-rimidin-4-yl)-1H,6H,7H-pyrrolo[2,3-c]pyridin-7-one] | 0.1 to 0.5 µM
0.01 to 0.1 µM | 50 to 100 nm/s | > 0.2 µM | 0.01 to 0.1 µM | > 0.2 µM | < 0.005 µM |  |  |  |  | CC1(C)CC[C@H](Nc2ncc(C(F)(F)F)c(-c3c[nH]c4c3CCCN(C3CCCC3)C4=O)n2)CN1 [CDK7_1154, 7-cyclopentyl-3-(2-{[(3S)-6,6-dimethylpiperidin-3-yl]amino}-5-(trifluoromethyl)py-rimidin-4-yl)-1H,4H,5H,6H,7H, 8H-pyrrolo[2,3-c]azepin-8-one] | > 2 µM
 |  | > 0.2 µM |  | > 0.2 µM | 0.005 to 0.05 µM | A (Clint < 20 μl/(min · mg of protein)) |  |  |  | Cn1ccnc1N1CCCc2c(-c3nc(NC4CCCNC4)ncc3C(F)(F)F)c[nH]c2C1=O (stereo not shown) [CDK7_1177] | > 2 µM
0.01 to 0.1 µM | 10 to 50 nm/s | > 0.2 µM | 0.01 to 0.1 µM | > 0.2 µM | < 0.005 µM |  | 0.76 µM | 18.6 µM | 0.0056 µM | CC1(C)CC[C@H](Nc2ncc(C(F)(F)F)c(-c3c[nH]c4c3CCCN(C3CCC3)C4=O)n2)CN1 [CDK7_1226, 7-cyclobutyl-3-(2-{[(3S)-6,6-dimethylpiperidin-3-yl]amino}-5-(trifluoromethyl)py-rimidin-4-yl)-1H,4H,5H,6H,7H, 8H-pyrrolo[2,3-c]azepin-8-one] | > 2 µM
